Results taken from patent publication US20250270202A1, “SUBSTITUTED 4-AMINOISOINDOLINE COMPOUND, PREPARATION METHOD THEREFOR, PHARMACEUTICAL COMPOSITION THEREOF, AND USE THEREOF” (SHANGHAI INSTITUTE OF MATERIA MEDICA, CHINESE ACADEMY OF …, priority 2022, published 2025).
Read-outs that look alike come from different tables or passages of the source.

Experiments:
Format in all cases: cell-based
MV-4-11 cells = assay: Inhibition of MV-4-11 cell proliferation (MTS, 7 days); conditions: Homo sapiens
Method in brief: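 Measured at 2,000 cells per well in IMDM with 10% FBS, five-fold compound dilutions, 0.2% DMSO final, 7 days at 37° C, 5% CO2. MTS added for 3-4 hours; signal as OD490-OD690. IC50 from three repeated experiments, each in triplicate.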

MM.1S cells = assay: Effect of the compound on MM.1S cell proliferation (MTS, 7 days); conditions: Homo sapiens, MM1.S
Method in brief: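 MM.1S cells (20,000/well in RPMI 1640 with 10% FBS) were exposed to a 5-step compound dilution series (0.2% DMSO final) for 7 days at 37 °C, 5% CO2. MTS readout used OD490 minus OD690 after 3–4 h, and IC50 was fitted from three independent repeats.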

Mino cells = assay: Inhibition of cell proliferation of Mino cells (MTS, 3 days); conditions: Homo sapiens, MINO
Method in brief: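 Mino cells in RPMI-1640 with 15% FBS were seeded at 8000 cells/well and treated with 5-fold compound dilutions (final DMSO 0.2%) for 3 days at 37° C. Viability was measured by MTS as OD490−OD690 after 3-4 h. IC50 was fitted from inhibition relative to DMSO and blank, in three repeat experiments.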

[1] = MV4-11, 168 h, 7 days, MTS, Table 3, read-out: MV-4-11 Cells Inhibition Activity IC50
[2] = 168 h, 7 days, MTS, Table 1, read-out: MM.1S Cells Inhibition Activity IC50
[3] = 72 h, 3 days, MTS, Table 2, read-out: Mino Cells Inhibition Activity IC50
[4] = MV4-11, Table 4, values in μM, read-out: Inhibitory Activity of Compounds on Cell Proliferation MV-4-11 IC50
[5] = Table 4, read-out: Inhibitory Activity of Compounds on Cell Proliferation MM.1S IC50
[6] = Table 4, read-out: Inhibitory Activity of Compounds on Cell Proliferation Mino IC50
[7] = MV4-11, Table 4, values in nM, read-out: Inhibitory Activity of Compounds on Cell Proliferation MV-4-11 IC50
[8] = MV4-11, positive compounds, read-out: IC50 in MV-4-11 acute leukemia cells

Compound | IC50 (MV-4-11 cells; [1]) [µM] | IC50 (MM.1S cells; [2]) [nM] | IC50 (Mino cells; [3]) [nM] | IC50 (MV-4-11 cells; [4]) [µM] | IC50 (MM.1S cells; [5]) [nM] | IC50 (Mino cells; [6]) [nM] | IC50 (MV-4-11 cells; [7]) [µM] | IC50 (MV-4-11 cells; [8]) [µM]
O=C1CCC(N2C(=O)c3cccc(NCc4cnc(-c5cccc(-c6ccccc6)c5)o4)c3C2=O)C(=O)N1 (centres unmarked) [Example 18] | < 1 | < 15 | < 60 |  |  |  |  | 
O=C1CCC(N2C(=O)c3cccc(NCc4cnc(-c5cccc(OC6COC6)c5)o4)c3C2=O)C(=O)N1 (centres unmarked) [Example 100] | 1 to 20 | < 15 | > 120 |  |  |  |  | 
O=C1CCC(N2C(=O)c3cccc(NCc4cnc(-c5ccc(Br)cc5)o4)c3C2=O)C(=O)N1 (centres unmarked) [Example 23] | < 1 | < 15 | > 120 |  |  |  |  | 
O=C1CCC(N2C(=O)c3cccc(NCc4cnc(-c5ccccc5Cl)s4)c3C2=O)C(=O)N1 (centres unmarked) [Example 69, 4-(((2-(2-Chlorophenyl)thiazol-5-yl)methyl)amino)-2-(2,6-Dioxopiperidin-3-yl)isoindolin-1,3-dione] | < 1 | 30 to 150 | > 120 |  |  |  |  | 
O=C1CCC(N2C(=O)c3cccc(NCc4cnc(-c5ccc(Cl)cc5)o4)c3C2=O)C(=O)N1 (centres unmarked) [Example 25] | < 1 | < 15 | < 60 | < 1 | < 15 | < 60 |  | 
O=C1CCC(N2C(=O)c3cccc(NCc4cnc(-c5ccc(OC6CCOCC6)cc5)o4)c3C2=O)C(=O)N1 (centres unmarked) [Example 53] | < 1 | < 15 | < 60 |  |  |  |  | 
O=C1CCC(N2Cc3c(NCc4cnc(-c5ccc(OC(F)(F)F)cc5)o4)cccc3C2=O)C(=O)N1 (centres unmarked) [Prior Art Disclosed Compound-1, reference compound] |  |  |  |  | > 20 | > 4800 | > 20 | 
O=C1CCC(N2C(=O)c3cccc(OCc4cn(-c5ccc(OC(F)(F)F)cc5)nn4)c3C2=O)C(=O)N1 (centres unmarked) [Prior Art Disclosed Compound-3, reference compound] |  |  |  |  | > 20000 | 680 | > 20 | 
O=C1CCC(N2C(=O)c3cccc(NCc4cnc(-c5cccc(Cl)c5Cl)o4)c3C2=O)C(=O)N1 (centres unmarked) [Example 74, 4-(((2-(2,3-Dichlorophenyl)oxazol-5-yl)methyl)amino)-2-(2,6-Dioxopiperidin-3-yl)isoindolin-1,3-dione] | 1 to 20 | < 15 | > 120 |  |  |  |  | 
N#Cc1ccc(-c2ncc(CNc3cccc4c3C(=O)N(C3CCC(=O)NC3=O)C4=O)s2)cc1 (centres unmarked) [Example 33, 4-(5-(((2-(2,6-dioxopiperidin-3-yl)-1,3-dioxoisoindolin-4-yl)amino)methyl)thiazol-2-yl)benzonitrile] | < 1 | < 15 | 60 to 120 |  |  |  |  | 
O=C1CCC(N2C(=O)c3cccc(NCc4cnc(-c5ccccc5OC5CC5)o4)c3C2=O)C(=O)N1 (centres unmarked) [Example 97, 4-(((2-(2-Cyclopropoxyphenyl)oxazol-5-yl)methyl)amino)-2-(2,6-Dioxopiperidine-3-yl)isoindoline-1,3-dione] | 1 to 20 | < 15 | > 120 |  |  |  |  | 
O=C1CCC(N2Cc3c(OCC4CCN(c5ccc(OC(F)(F)F)cc5)CC4)cccc3C2=O)C(=O)N1 (centres unmarked) [Prior Art Disclosed Compound-4, reference compound] |  |  |  |  | > 41 | 7500 | > 10 | 
O=C1CCC(N2C(=O)c3cccc(NCc4cnc(-c5ccc(F)cc5)o4)c3C2=O)C(=O)N1 (centres unmarked) [Example 26] | < 1 | < 15 | < 60 |  |  |  |  | 
O=C1CCC(N2C(=O)c3cccc(NCc4ncc(-c5ccc(Cl)cc5)o4)c3C2=O)C(=O)N1 (centres unmarked) [Example 64, 4-(((5-(4-Chlorophenyl)oxazol-2-yl)methyl)amino)-2-(2,6-Dioxopiperidin-3-yl)isoindolin-1,3-dione] | < 1 | < 15 | > 120 |  |  |  |  | 
O=C1CCC(N2C(=O)c3cccc(NCc4cnc(C5CCN(C(=O)c6ccc(Cl)cc6Cl)CC5)o4)c3C2=O)C(=O)N1 (centres unmarked) [Example 8] | < 1 | 15 to 30 | 60 to 120 |  |  |  |  | 
Cc1cccc(-c2ncc(CNc3cccc4c3C(=O)N(C3CCC(=O)NC3=O)C4=O)o2)c1 (centres unmarked) [Example 20] | < 1 | < 15 | < 60 |  |  |  |  | 
CC1(C(=O)N2CCC(c3ncc(CNc4cccc5c4C(=O)N(C4CCC(=O)NC4=O)C5=O)o3)CC2)CCC1 (centres unmarked) [Example 1] | 1 to 20 | < 15 | < 60 |  |  |  |  | 
O=C1CCC(N2C(=O)c3cccc(NCc4ncc(-c5ccc(C(F)(F)F)cc5)o4)c3C2=O)C(=O)N1 (centres unmarked) [Example 60] | 1 to 20 | 15 to 30 | > 120 |  |  |  |  | 
N#Cc1cccc(-c2ncc(CNc3cccc4c3C(=O)N(C3CCC(=O)NC3=O)C4=O)s2)c1 (centres unmarked) [Example 30] | 1 to 20 | 15 to 30 | > 120 |  |  |  |  | 
C=Cc1ccc(-c2ncc(CNc3cccc4c3C(=O)N(C3CCC(=O)NC3=O)C4=O)s2)cc1 (centres unmarked) [Example 31] | < 1 | < 15 | < 60 |  |  |  |  | 
Nc1cccc2c1CN(C1CCC(=O)NC1=O)C2=O (centres unmarked) [Lenalidomide, reference compound] | > 20 | 30 to 150 | > 120 |  |  |  |  | > 20
O=C1CCC(N2C(=O)c3cccc(NCc4cnc(-c5cc(Cl)ccc5Cl)o4)c3C2=O)C(=O)N1 (centres unmarked) [Example 77] | 1 to 20 | 30 to 150 | > 120 |  |  |  |  | 
O=C1CCC(N2C(=O)c3cccc(NCc4cnc(-c5ccccc5Cl)o4)c3C2=O)C(=O)N1 (centres unmarked) [Example 27] | < 1 | < 15 | 60 to 120 |  |  |  |  | 
N#Cc1ccc(CN2CCC(c3ncc(CNc4cccc5c4C(=O)N(C4CCC(=O)NC4=O)C5=O)o3)CC2)c(F)c1 (centres unmarked) [Example 13] | 1 to 20 | 30 to 150 | > 120 |  |  |  |  | 
CN(Cc1cnc(-c2ccc(Cl)cc2)o1)c1cccc2c1C(=O)N(C1CCC(=O)NC1=O)C2=O (centres unmarked) [Example Ctrl-3, 4-(((2-(4-chlorophenyl)oxazol-5-yl)methyl)(methyl)amino)-2-(2,6-dioxopiperidin-3-yl)isoindoline-1,3-dione, reference compound] |  |  |  | 1 to 20 | > 30 | > 120 |  | 
[2H]c1c([2H])c([2H])c(-c2ncc(CNc3cccc4c3C(=O)N(C3CCC(=O)NC3=O)C4=O)s2)c([2H])c1[2H] (centres unmarked) [Example 46] | 1 to 20 | 15 to 30 | > 120 |  |  |  |  | 
Nc1cccc2c1C(=O)N(C1CCC(=O)NC1=O)C2=O (centres unmarked) [Pomalidomide, reference compound] | > 20 | 30 to 150 | > 120 |  |  |  |  | > 20
O=C1CCC(N2C(=O)c3cccc(NCc4cnc(CN5CC(N6CCOCC6)C5)o4)c3C2=O)C(=O)N1 (centres unmarked) [Example 80] | < 1 | > 150 | > 120 |  |  |  |  | 
O=C1CCC(N2C(=O)c3cccc(NCc4cnc(-c5cccc(F)c5)s4)c3C2=O)C(=O)N1 (centres unmarked) [Example 28] | 1 to 20 | 30 to 150 | > 120 |  |  |  |  | 
O=C1CCC(N2C(=O)c3cccc(NCc4cnc(CN5CCC(N6CCOCC6)CC5)o4)c3C2=O)C(=O)N1 (centres unmarked) [Example 87] | > 20 | 30 to 150 | > 120 |  |  |  |  | 
